Source: PMC5100001, “Defining the extreme substrate specificity of Euonymus alatus diacylglycerol acetyltransferase, an unusual membrane-bound O-acyltransferase” (Bioscience Reports, 2016)

Biological target: T1, EaDAcT (Euonymus alatus diacylglycerol acetyltransferase) (Euonymus alatus, UniProt D6NSS8)
T1 construct: gene DAcT; full-length ORF in microsomes of S. cerevisiae H1246 (quadruple knockout); C-terminal HA tag printed for the pESC-URA coexpression construct; N-terminus MDAHQEIK translated from printed primer
T1 sequence (D6NSS8 entry or part of it): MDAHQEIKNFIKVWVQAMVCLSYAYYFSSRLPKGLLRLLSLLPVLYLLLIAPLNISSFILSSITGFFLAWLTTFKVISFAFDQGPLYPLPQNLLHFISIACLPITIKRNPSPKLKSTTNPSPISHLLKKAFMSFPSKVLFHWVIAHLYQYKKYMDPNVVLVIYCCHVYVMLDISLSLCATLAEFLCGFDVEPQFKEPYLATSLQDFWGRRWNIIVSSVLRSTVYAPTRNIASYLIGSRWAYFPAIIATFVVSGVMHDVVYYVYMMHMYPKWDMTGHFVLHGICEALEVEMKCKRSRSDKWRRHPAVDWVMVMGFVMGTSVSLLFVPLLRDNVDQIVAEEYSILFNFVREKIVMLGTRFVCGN
Test: microsomal acyltransferase assay, ESI-MS quantification of sn-3 acyl TAG
Type: biochemical
Details: acyl donor 50 to 1500 uM, endogenous sn-1,2-DAG as acceptor, pH 7.5, 30 C

Structure (SMILES)	microsomal acyltransferase assay, ESI-MS quantification of sn-3 acyl TAG ([1,2-13C] labelled compound)	microsomal acyltransferase assay, ESI-MS quantification of sn-3 acyl TAG (unlabelled)
CC(=O)SCCNC(=O)CCNC(=O)[C@H](O)C(C)(C)COP(=O)(O)OP(=O)(O)OC[C@H]1O[C@@H](n2cnc3c(N)ncnc32)[C@H](O)[C@@H]1OP(=O)(O)O [acetyl-CoA]	higher rates of production formation were always achieved with acetyl-CoA compared with butyryl- or hexanoyl-CoA	
CCCC(=O)SCCNC(=O)CCNC(=O)[C@H](O)C(C)(C)COP(=O)(O)OP(=O)(O)OC[C@H]1O[C@@H](n2cnc3c(N)ncnc32)[C@H](O)[C@@H]1OP(=O)(O)O [butyryl-CoA]		Reaction rates with butyryl-CoA and hexanoyl-CoA were relatively similar to one another
